In brackets after ≈: the same amount, converted by molar mass. Like-named read-outs stand apart in the source and are kept apart here.
How the values were obtained:
Format in all cases: cell-based, human
THP-1 cells [1] = experiment: MTT cell viability assay, THP-1 cells; conditions: for IC50: MTT, n = 3
Method: Jurkat and THP-1 cell lines were purchased from the American Type Culture Collection (ATCC, Rockville, MD, USA); Jurkat is a human lymphocytic cell line representing acute T-cell leukemia, and THP-1 is a monocytic cell line that represents acute myelogenous leukemia (AML). […] Cat Nos. […] The cells were maintained at 37 °C in a humidified atmosphere with 5% CO2. The culture medium was exchanged with fresh medium every 2-3 days. Peripheral blood mononuclear cells (PBMCs) were isolated from normal human venous blood. Further, 10 milliliters of human blood was mixed with 10 mL of RPMI-1640 containing 50 μL of heparin and gradually poured over 1 mL of HISTOPAQUE®-1119 (Sigma). The plasma was removed by centrifugation at 3000 rpm for 30 min. The peripheral blood mononuclear cell-containing layer was collected with a pipette and diluted in 4 mL of PBS. PBMCs were harvested by centrifugation at 1500 rpm for 10 min at room temperature, resuspended in RPMI-1640 with 10% FBS, and incubated at 37 °C in 5% CO2 humidified air. […] Doxorubicin was used as a reference standard drug (positive control). After treatment, the medium was discarded; 200 μL of RPMI 1640 medium without phenol red containing 0.5 mg/mL MTT (Sigma Chemical Co., Saint Louis, MO, USA; Cat. No. […] The plates were incubated for four hours at 37 °C with 5% CO2 in a humidified atmosphere. The medium was discarded, and 100 μL of DMSO was added to solubilize the formazan crystals. The absorbance was measured with an ELISA microplate reader at 492 nm (ELx800; BioTek Instruments Inc., Winooski, VT, USA). The percentage of viable cells was calculated on the basis of the nontreated control (taken as 100%). […] Three independent assays were performed, each in triplicate. The selectivity index corresponds to the ratio of the IC50 value calculated for the activity of synthesized compounds on a regular cell line (PBMCs) to that of the IC50 calculated for cancer cell lines (Jurkat and THP-1). Values greater than two were optimal for an efficient selectivity index.

THP-1 cells [2] = experiment: Flow cytometric apoptosis, Annexin V-CF647/7-AAD; conditions: THP-1, 24 h (Figure S5)
Method: In 96-well plates, 8 × 10^4 cells were treated with 25, 50, and 100 µg/mL extract and 400 µM doxorubicin (positive control) for 24 and 48 h. The cells were washed with 1X PBS, and apoptotic cells were detected by staining with 100 µL of Annexin V-CF647 and 5 µL of the 7-AAD Apoptosis Annexin Red Kit (FCCH100108 FlowCellect, Millipore, Darmstadt, Germany). The cells were incubated at room temperature for 15 min in the dark and analyzed on a Guava Millipore flow cytometer (Merck Millipore, Bedford, MA, USA) using InCyte software (version 3.1, Merck Millipore). The percentage of annexin V-positive cells was evaluated.

ERK = experiment: Western blot ERK phosphorylation; conditions: THP-1, 24 h
Method: (§1) THP-1 cells were seeded in 24-well plates (5 × 10^5 cells/well), and after 24 h of incubation, they were pretreated with 1 µM apicidin for 24 h and then treated with different concentrations of the n-butanol extract, catalposide, and specioside for 24 h. After treatment, the cells were lysed with an Abcam protein extraction kit (ab270054), and a phosphatase inhibitor cocktail (ab201115) was added. The supernatants of the cell extracts were quantified with a BCA protein assay (Thermo Scientific Pierce #23227, Waltham, MA, USA). Equivalent amounts of protein were electrophoresed on 10% SDS polyacrylamide gels and then electroblotted onto 0.45 μm polyvinylidene difluoride (PVDF) membranes (GE Healthcare, Chicago, IL, USA). […] The signals were detected using SuperSignal™ West Pico PLUS Chemiluminescent Substrate (Thermo Scientific Pierce cat 34577) and analyzed with a ChemiDoc XRS+ system (Bio-Rad, Hercules, CA, USA). The density of each band was measured using ImageJ software V. 1.53n, 7 November 2021 (NIH, Bethesda, MD, USA), and the protein levels were normalized to the GAPDH levels. The data are expressed as the means of three independent experiments. […]

JNK = experiment: Western blot JNK phosphorylation; conditions: THP-1, 24 h; specioside all concentrations except 60 μg/mL in presence of APC
Method: as §1

[3] = Homo sapiens, THP-1, 12 h, read-out: IC50
[4] = Homo sapiens, THP-1, 24 h, read-out: IC50
[5] = Homo sapiens, THP-1, 48 h, read-out: IC50

Row | IC50 (THP-1 cells [1]; [3]) | IC50 (THP-1 cells [1]; [4]) | IC50 (THP-1 cells [1]; [5]) | IC50 (THP-1 cells [1]; THP-1, 24 h) | Structure (SMILES) | SI (selectivity index) (THP-1 cells [1]; IC50 PBMC / IC50 THP-1, 12 h) | SI (selectivity index) (THP-1 cells [1]; IC50 PBMC / IC50 THP-1, 24 h) | SI (selectivity index) (THP-1 cells [1]; IC50 PBMC / IC50 THP-1, 48 h) | apoptosis compared with control (THP-1 cells [2]) | phosphorylation of the ERK protein compared with control (ERK) | phosphorylation of the JNK protein compared with control (JNK)
1 | 122 ± 3.3 µg/mL (≈ 252 µM) | 43.9 µg/mL (≈ 91 µM) | 30.2 ± 1.67 µg/mL (≈ 62.5 µM) | 43.86 ± 2.2 µg/mL (≈ 90.9 µM) | O=C(O[C@H]1[C@@H]2C=CO[C@@H](O[C@@H]3O[C@H](CO)[C@@H](O)[C@H](O)[C@H]3O)[C@@H]2[C@@]2(CO)O[C@@H]12)c1ccc(O)cc1 [Catalposide, catalposide] | 1.03 | 1.99 | 1.44 | increased apoptosis | decreased protein phosphorylation but not significantly | did not significantly change
2 | 47.2 ± 2.3 µg/mL (≈ 92.9 µM) | 40.3 µg/mL (≈ 79.3 µM) | 26.3 ± 6.8 µg/mL (≈ 51.8 µM) | 40.32 ± 1.3 µg/mL (≈ 79.3 µM) | O=C(/C=C/c1ccc(O)cc1)O[C@H]1[C@@H]2C=CO[C@@H](O[C@@H]3O[C@H](CO)[C@@H](O)[C@H](O)[C@H]3O)[C@@H]2[C@@]2(CO)O[C@@H]12 [Specioside] | 3.49 | 1.75 | 2.06 | increased apoptosis | did not significantly change | significantly phosphorylated

From paper PMC11396062, “The n-Butanol Extract Obtained from the Inner Bark of Tabebuia rosea (Bertol.) DC, Specioside, and Catalposide Induce Leukemia Cell Apoptosis in the Presence of Apicidin” (Molecules, 2024)
